Experimental data published in US9957288B2, “Pyrabactin analogues to modulate plant development” (Universiteit Gent, priority 2014, dated 2018).
Entries after “also recorded” stand apart in the source; their conditions may differ. Read-outs that look alike come from different tables or passages of the source.

What was measured:
[1] = test system: Arabidopsis thaliana seeds; assay: Arabidopsis thaliana seed germination assay; format: in vivo
[2] = test system: Arabidopsis thaliana Columbia (Col0) seedlings; assay: Primary root elongation of etiolated seedlings on compound medium; format: in vivo
[3] = test system: tobacco epidermal strips; assay: Stomatal closure assay on epidermal strips; format: cell-based, Nicotiana tabacum
[4] = test system: Nicotiana benthamiana leaves; assay: Leaf dehydration assay (weight loss of pre-treated detached leaves in dry air flow); format: in vivo; conditions: for effect on leaf weight loss / transpiration: pre-treatment: ABA 10 and 100 μM, analogues 10 μM, 6 h dry air flow; for % weight loss (average): average of 5-10 leaves, control 29.51%
[5] = test system: Arabidopsis thaliana Columbia (Col0) seedlings; assay: Lateral root initiation (lateral roots + lateral root primordia, number and density); format: in vivo
[6] = test system: Arabidopsis thaliana seedlings
[7] = test system: etiolated Arabidopsis thaliana seedlings
[8] = 10 μM, compared with control not-treated seeds
[9] = primary root, 10 μM, compared with control not-treated seedlings
[10] = 10 μM, compared with control not-treated epidermal strips
[11] = 13 d old etiolated seedlings, 10 μM
[12] = lateral root, 10 μM, compared with control not-treated seedlings
[13] = adventitious root, 10 μM, compared with control not-treated seedlings

Row | Compound | Seed germination ([1]; in vivo) | PR ([2]; in vivo) | effect on primary root growth ([2]; in vivo) | Stomata [3] | effect on stomatal aperture [3] | effect on leaf weight loss / transpiration [4] | LR ([5]; in vivo) | effect on LR+ LRP density (per cm primary root) ([5]; in vivo) | effect on number of LR+ LRP (lateral root initiation) ([5]; in vivo) | Shoot ([6]; in vivo) | AR ([7]; in vivo) | other results
1 | CCOP(=O)(NCc1ccccn1)c1ccc(Br)c2ccccc12 (stereo not drawn) [Analogue E1, Ethyl N-(pyridin-2-ylmethyl)-P-(4-bromonapht-1-yl)phosphonamidate] | 0 | + | modest inhibitors of primary root elongation | − | did not cause closure of the stomata and even induced the opening | reduction of transpiration | ++ | strong density reduction (even stronger than ABA) | strong inhibitors | 0 | − | 
2 | O=S(=O)(NCc1ccccn1)c1ccc(Br)c2ccccc12 [Pyrabactin, pyrabactin] |  |  |  |  |  |  |  |  |  |  |  | Seed germination [1, 8]: ++; effect on seed germination ([1]; different concentrations, gradual and dose-dependent): inhibited seed germination; reduction of primary root length ([2]; 10 μM): 2.5 fold; PR [2, 9]: ++; Stomata [3, 10]: +; effect on stomatal aperture ([3]; 10 μM, listed as pyrabactin): induced stomatal closure, rapidly but to a much lower degree than ABA; also recorded: demonstrated an effect on the stomata; effect on LR+ LRP density (per cm primary root) [5, 11]: significantly increased the LR+ LRP density; effect on number of LR+ LRP (lateral root initiation) [5, 11]: only did moderately affect lateral root initiation; LR [5, 12]: ++; effect on shoot development ([6]; 10 μM): leaf size was also significantly reduced; Shoot ([6]; 10 μM, compared with control not-treated seedlings): ++; effect on shoot development ([6]; 10 μM, listed as pyrabactin): seedlings with a smaller shoot than control seedlings; effect on adventitious root formation ([7]; 10 μM): reduced the formation of these roots; AR [7, 13]: +++
3 | CCOP(=O)(NCc1ccccn1)c1cccc2ccccc12 (stereo not drawn) [Analogue E9, Ethyl N-(pyridin-2-ylmethyl)-P-(napht-1-yl)phosphonamidate] | 0 | 0 | modest inhibitors of primary root elongation | 0 | did not affect the size of the stomatal aperture | reduction of transpiration | + | reduced the numbers of LR+ LRP similarly to ABA | modest to weak inhibitors of lateral root formation | 0 | − | 
4 | CCOP(=O)(Nc1cccnc1)c1ccccc1 (stereo not drawn) [Analogue D3, Ethyl N-(pyridin-3-yl)-P-(phenyl)phosphonamidate] | 0 | 0 | did not show a significant effect | 0 | intermediate stomatal closure |  | 0 | increased the LR density | enhanced lateral root induction | 0 | 0 | 
5 | CCOP(=O)(NCc1cccnc1)c1ccc(Br)c2ccccc12 (stereo not drawn) [Analogue E3, Ethyl N-(pyridin-3-ylmethyl)-P-(4-bromonapht-1-yl)phosphonamidate] | 0 | 0 | did not show a significant effect | ++ | intermediate stomatal closure |  | + | reduced the numbers of LR+ LRP similarly to ABA | modest to weak inhibitors of lateral root formation | 0 | − | 
6 | CCOP(=O)(NCc1ccccc1)c1ccc(Br)c2ccccc12 (stereo not drawn) [Analogue E4, Ethyl N-(benzyl)-P-(4-bromonapht-1-yl)phosphonamidate] | + | +++ | strongly inhibited primary root growth | ++ | intermediate stomatal closure |  | +++ | strong density reduction (even stronger than ABA) | strong inhibitors | +++ | +++ | effect on seed germination ([1]; in vivo): did not inhibit the germination; effect on shoot development ([6]; in vivo): strong inhibition of the seedling's shoot development; cellular toxicity (inhibitory effect on plant development) ([7]; in vivo): exhibits cellular toxicity at the concentration used; effect on adventitious root formation ([7]; in vivo): reduction of adventitious root formation, respectively stronger or similar to pyrabactin
7 | CCOP(=O)(OCc1ccccn1)c1ccccc1 (stereo not drawn) [Analogue D2, Ethyl (pyridin-2-ylmethyl) phenylphosphonate] | 0 | 0 | did not show a significant effect | 0 | did not affect the size of the stomatal aperture |  | 0 | did not significantly affect the LR numbers | did not have a significant effect | 0 | 0 | 
8 | CC1=CC(=O)CC(C)(C)[C@@]1(O)/C=C/C(C)=C\C(=O)O [ABA, Abscisic acid, reference compound] | +++ | +++ |  | +++ | rapidly induces stomatal closure | significantly less weight loss | +++ | reduced the number of roots per cm primary root | strongly reduced the number of LR+ LRP | +++ | 0 | effect on seed germination ([1]; in vivo): inhibited seed germination stronger than pyrabactin; reduction of primary root length ([2]; in vivo): 5 fold; relative stomatal aperture [3]: 40%; time to 50% of closure of stomata [3]: ≤ 10 min; % weight loss (average) ([4]; leaves pre-treated with 10 μM): 18.54%; % weight loss (average) ([4]; leaves pre-treated with 100 μM): 16.99%; effect on adventitious root formation ([7]; in vivo): not affected
9 | O=P(O)(NCc1ccccn1)c1ccc(Br)c2ccccc12 [Analogue E10, Hydrogen N-(pyridin-2-ylmethyl)-P-(4-bromonapht-1-yl)phosphonamidate] |  |  |  |  |  | reduction of transpiration |  |  |  | 0 |  | Seed germination [1, 8]: 0; effect on primary root growth ([2]; 10 μM): modest inhibitors of primary root elongation; PR [2, 9]: +; effect on stomatal aperture ([3]; 10 μM): intermediate stomatal closure; Stomata [3, 10]: +; effect on LR+ LRP density (per cm primary root) [5, 11]: reduced the numbers of LR+ LRP similarly to ABA; effect on number of LR+ LRP (lateral root initiation) [5, 11]: modest to weak inhibitors of lateral root formation; LR [5, 12]: +; AR [7, 13]: −
